{"source": "ChEMBL document CHEMBL1150992", "about": "“Synthesis and preparation of an affinity chromatography column for the purification of cytosolic phospholipase A2” (Bioorg Med Chem Lett, 1995)", "key": {"[1]": {"test": "Inhibitory activity against cPLA2 was assessed from arachidonic acid (AA) release in U937 cells", "assay_type": "functional, cell-based", "details": "U-937"}, "[2]": {"test": "Inhibitory activity against cPLA2 was assessed from arachidonic acid (AA) release in cell free assay", "assay_type": "functional"}}, "data": [{"compound": "CCCc1c(OCCCOc2ccc(C(CCCc3ccccc3)SCCC(=O)O)cc2)ccc(C(C)=O)c1O", "note": "(configuration not stated)", "values": [{"measurement": "IC50", "setting": "[1]", "result": 1000, "unit": "nM"}, {"measurement": "IC50", "setting": "[2]", "result": 1000, "unit": "nM"}]}]}
